These results are taken from patent US20240066137A1, “NOVEL PROTEIN CONJUGATE, AND USE THEREOF FOR PREVENTING OR TREATING NONALCOHOLIC STEATOHEPATITIS, OBESITY AND DIABETES” (ONEGENE BIOTECHNOLOGY INC., priority 2020, published 2024).

Test [1] has as its target NF-κB activity by IL-1β. Briefly: NF-κB reporter gene luciferase assay. Format: cell-based. As to conditions: IL-1β stimulated. How it is done: The cells were cultured to 70-80% full in a T-75 flask. The medium was removed and washed once with 5 mL of the pre-warmed PBS. PBS was removed, and 1 mL of TryPLE Express was added, and incubated for 5 minutes in an incubator at 37° C. and 5% CO2, and the cells were detached. It was mixed with 4 mL of assay medium (10% FBS, 1% antibiotic in DMEM), and the mixture was transferred to a 15 mL tube, centrifuged at 1,000 rpm for 3 minutes, and then again released in 5 mL of assay medium. The number of cells was counted, and the concentration was allowed to be 500,000 cells/mL. It was transferred to a reservoir, and 40 μL per well was dispensed into a white 96-well half-area cell culture plate using a multi-channel pipette (20,000 cells/well). Only 40 μL of assay medium was dispensed into the blank well. The cells were incubated in an incubator at 37° C. and 5% CO2 for 24 hours to allow to be attached.
5 μL of each of the reference (10×) and sample (10×) prepared by 4-fold serial dilution was dispensed in duplicate. Thereafter, 5 μL of 50 pM IL-1β (10×) was dispensed and incubated in an incubator at 5% CO2 for 4 hours. 50 μL of ONE-Glo reagent (Promega, Cat. No. E6120) was each dispensed and cultured at room temperature for 5 minutes, and then the luminescence was measured with a Synergy Neo2 instrument. At this time, before treatment with ONE-Glo reagent, the plate was removed from the incubator for 15 minutes and allowed to reach room temperature.
The Delta RLU (relative luminescence unit) (ΔRLU) was calculated as follows.
ΔRLU=RLUsample−RLUblank=Signal−background luminescence
The IC50 values were obtained as ΔRLU by each concentration using GraphPad Prism 8, as follows (curve-fitting of the log (antagonist) vs. normalized response−variable slope equation).
In order to test the ability of the native IL-1RA and the IL-1RA analogue to inhibit NF-κB activity by IL-1β at the cellular level (in vitro), the NF-κB reporter gene luciferase assay was performed in the same manner as in Test Example 3.
Background: In a reporter assay the amount or activity of a reporter protein is the signal.

Test [2] has as its target GLP-1R (GLP-1 acceptor) (Homo sapiens, UniProt P43220). Briefly: cAMP accumulation assay, GLP-1 acceptor overexpressing cells.
Test [3] has as its system C57BL/6J mice in which fatty liver was induced by feeding MCD. Description: In-vivo efficacy against non-alcoholic steatohepatitis (MCD diet mice). Further details: species or system mouse; ALT / Hepatic TGF-β / Hepatic Triglyceride: unit not given here. As to conditions: for ALT: dulaglutide 2 nmol/kg s.c. 1 time/2 days, 14 times; for Hepatic TGF-β: liver tissue ELISA; for Hepatic Triglyceride / Lobular inflammation score (Lobular inflammation) / NAS (NAFLD Activity Score) / Steatosis score (Steatosis): liver tissue. An excerpt:
The MCD mouse model is the most typically used method for efficacy testing against non-alcoholic steatohepatitis, and it is known that the histological appearance of the induced liver tissue from week 2 to week 4 is histologically similar to that of human non-alcoholic steatohepatitis. There are many precedent cases in which a number of pharmaceutical companies and academia conducted tests with various substances.
Fatty liver was induced by feeding MCD to male C57BL/6J mice for 8 weeks, and then the mice were divided into 6 groups shown in Table 7 below, and drug administration was performed for 4 weeks. As a comparative substance, two currently commercially available drugs, liraglutide (Saxenda) and dulaglutide (Trulycity), were used. The administered composition was repeatedly administered subcutaneously using a disposable syringe according to each administration cycle. […] The normal control group was fed with MCS (Methionine and Choline Sufficient L-Amino Acid Diet).
During the 4-week administration period, general symptoms and behavior were observed, and body weight was measured once a week after the start of administration and on the day of tissue extraction. Blood collection and liver tissue extraction were performed on the day of the end of observation, and blood was subjected to a hematological-biochemical test, and the extracted liver tissue was subjected to a histopathological test.
Alanine aminotransferase (ALT), which is used as the most basic indicator of liver disease, was measured through a hematological-biochemical test, and the results are shown in Table 8 below and FIG. 21.
In addition, histopathological test was performed by observation through H&E and Masson's trichrome staining, and the results are shown in FIG. 23. In the case of non-alcoholic steatohepatitis, steatosis and inflammation in lobules occurs, and inflammatory cells can be identified by tissue staining.
In addition, based on the evaluation criteria shown in Table 10 below, steatosis score, lobular inflammation score, and NAS (NAFLD activity score) were evaluated.
In addition, triglyceride accumulation in the liver tissue was analyzed using the Triglyceride Assay Kit, and the results are shown in Table 15 below and FIG. 28.
The mice were divided into 4 groups shown in Table 16 below, and the experiment was conducted in the same manner as in Test Example 4 above. As a comparative substance, the currently commercially available dulaglutide (Trulycity) was used.
In general terms: In an ELISA, binding on a coated surface is turned into a signal by an enzyme label.

[4] abbreviates: Test Example 4, dulaglutide 2 nmol/kg.
The mark [5] stands for this setting: Test Example 5, dulaglutide 2 nmol/kg.

Like-named read-outs stand apart in the source and are kept apart here.

Sequence of GLP-1R (GLP-1 acceptor) (P43220 24-463): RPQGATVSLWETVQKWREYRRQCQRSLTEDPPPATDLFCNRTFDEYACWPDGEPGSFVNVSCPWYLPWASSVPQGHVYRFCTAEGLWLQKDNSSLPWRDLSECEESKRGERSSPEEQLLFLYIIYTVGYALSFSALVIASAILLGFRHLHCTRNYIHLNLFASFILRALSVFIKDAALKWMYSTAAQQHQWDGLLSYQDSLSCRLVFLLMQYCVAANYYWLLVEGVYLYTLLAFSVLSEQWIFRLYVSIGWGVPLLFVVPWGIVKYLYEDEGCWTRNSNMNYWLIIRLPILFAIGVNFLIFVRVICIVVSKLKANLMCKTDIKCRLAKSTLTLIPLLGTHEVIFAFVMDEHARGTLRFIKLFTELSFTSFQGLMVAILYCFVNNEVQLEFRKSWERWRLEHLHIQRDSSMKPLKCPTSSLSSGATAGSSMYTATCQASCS

What is called IC50 is the concentration needed to halve the response being measured. For rhIL-1RA: native IL-1RA, SEQ ID NO: 27, the IC50 turned out to be 0.0475 nM in test [1] (Test Example 3, mean of 4 runs, read-out: IC50, Mean); 0.0399 nM in test [1] (Test Example 3, run 1, read-out: IC50, 1); 0.0515 nM in test [1] (Test Example 3, run 2, read-out: IC50, 2); 0.0466 nM in test [1] (Test Example 3, run 3, read-out: IC50, 3); 0.0519 nM in test [1] (Test Example 3, run 4, read-out: IC50, 4); 0.0686 ± 0.00771 nM in test [1] (Test Example 9 screening, read-out: IC50).
Broadly, the EC50 is the concentration giving half of the maximal effect. In test [2] (Test Example 9 screening, Cell line: Stable), Dulaglutide [reference compound] came in with an EC50 of 0.00145 ± 0.00045 nM. For the same substance, the half-maximal effective concentration (EC50) in test [2] (read-out: EC50 GLP-1R, 1, Test Example 1, run 1) came out at 0.00123 nM. In test [2] (read-out: EC50 GLP-1R, Mean, Test Example 1, mean of 2 runs), the EC50 is 0.00107 nM. This substance showed an ALT in test [3] (Test Example 4, blood) of 220.5. In test [3] (setting [4]), the “Hepatic TGF-β” value came out at 159.60, the “Hepatic Triglyceride” value turned out to be 40.78, the “Lobular inflammation score (Lobular inflammation)” value was determined as 1.5 and the “NAS (NAFLD Activity Score)” value is given as 3.4. Besides, the “Steatosis score (Steatosis)” value in test [3] (setting [4]) amounted to 1.9. For the same substance, the AST/ALT value in test [3] (Test Example 5, blood, dulaglutide 2 nmol/kg) is reported as 0.76. In test [3] (Test Example 5, blood), the ALT came to 246.8. Besides, in test [3] (setting [5]), the “Hepatic TGF-β” value is reported as 165.3, the “Hepatic Triglyceride” value turned out to be 36.08, the “Lobular inflammation score (Lobular inflammation)” value was determined as 1.6 and the “NAS (NAFLD Activity Score)” value was 3.4. Besides, in test [3] (setting [5]), the “Steatosis score (Steatosis)” value was 1.8.
